Assay results as given in ChEMBL document CHEMBL5233223, “Dammarane-type leads panaxadiol and protopanaxadiol for drug discovery: Biological activity and structural modification” (Eur J Med Chem, 2020).

Columns and labels:
Type in all cases: functional, cell-based
[1] = system: A549; assay: Antiproliferative activity against human A549 cells assessed as cell growth inhibition
[2] = system: HL-60; assay: Antiproliferative activity against human HL-60 cells assessed as cell growth inhibition
[3] = system: HepG2; assay: Antiproliferative activity against human HepG2 cells assessed as cell growth inhibition

CCCCCCC/C=C\CCCCCCCC(=O)O[C@H]1CC[C@@]2(C)C(CC[C@]3(C)C2C[C@@H](O)C2C([C@@](C)(O)CCC=C(C)C)CC[C@]23C)C1(C)C (stereo partly drawn)
IC50 [1]: 29.7 µM
IC50 [2]: 11.6 µM
IC50 [3]: 9.2 µM
